The target of experiment [1] is T1, Calpain-1 catalytic subunit (Sus scrofa, UniProt P35750).
T1 sequence (P35750 whole entry): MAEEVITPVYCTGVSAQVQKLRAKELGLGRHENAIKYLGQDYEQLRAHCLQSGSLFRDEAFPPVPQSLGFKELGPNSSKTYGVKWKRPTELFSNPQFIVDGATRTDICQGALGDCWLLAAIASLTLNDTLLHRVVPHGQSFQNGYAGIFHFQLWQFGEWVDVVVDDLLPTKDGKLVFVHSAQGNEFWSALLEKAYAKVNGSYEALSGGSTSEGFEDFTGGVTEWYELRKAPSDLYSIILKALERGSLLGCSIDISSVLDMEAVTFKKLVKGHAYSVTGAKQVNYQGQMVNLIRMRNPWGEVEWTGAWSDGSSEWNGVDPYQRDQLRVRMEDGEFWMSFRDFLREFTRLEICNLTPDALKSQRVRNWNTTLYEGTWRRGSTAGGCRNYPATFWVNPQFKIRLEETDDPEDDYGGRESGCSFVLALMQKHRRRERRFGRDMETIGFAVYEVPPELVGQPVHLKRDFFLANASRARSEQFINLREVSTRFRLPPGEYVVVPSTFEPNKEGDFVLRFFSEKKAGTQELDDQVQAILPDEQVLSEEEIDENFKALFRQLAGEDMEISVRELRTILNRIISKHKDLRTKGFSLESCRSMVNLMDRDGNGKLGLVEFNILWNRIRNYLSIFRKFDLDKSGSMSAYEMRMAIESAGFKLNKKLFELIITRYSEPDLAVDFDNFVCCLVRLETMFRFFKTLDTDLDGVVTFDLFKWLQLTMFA
Briefly: Inhibition of mu calpain in porcine erythrocyte.

The target in experiment [2] is Cathepsin B (Homo sapiens, UniProt P07858). Description: Inhibition of cathepsin B from human brain.
Experiment [3] in a line: Selectivity for porcine mu calpain over human cathepsin B.
Experiment [4] is filed under the species Sus scrofa. Description: Inhibition of mu calpain in porcine erythrocyte at 100 uM.

This is an account of results in ChEMBL document CHEMBL1146935, “A novel series of urea-based peptidomimetic calpain inhibitors” (Bioorg Med Chem Lett, 2006).

A word on the Ki: it is a measure of affinity in units of concentration, obtained from inhibition or displacement. Turning to `CC(C)N(CCOCc1ccccc1)C(=O)N[C@H](C=O)Cc1ccccc1`, the Ki in experiment [1] was found to be 230 nM; in experiment [2], 22.1 µM. Moreover, the Ratio Ki in experiment [3] amounted to 96.1.
As for `CC(C)CN(CCOCc1ccccc1)C(=O)N[C@H](C=O)Cc1ccccc1`, the Ki in experiment [1] came out at 150 nM; in experiment [2], 33.3 µM. Moreover, the Ratio Ki in experiment [3] came to 222.
On to `CC(C)CN(CCOCc1ccccc1)C(=O)NCC=O`, for which the affinity in experiment [1] corresponds to a Ki of 88700 nM.
With `CC(C)N(Cc1ccccc1)C(=O)N[C@H](C=O)Cc1ccccc1`, in experiment [1], the Ki was determined as 6820 nM.
On to `CC(C)CC(C(=O)N[C@H](C=O)Cc1ccccc1)C(=O)OCc1ccccc1` (some centres not stated), for which the Ki is 15 nM in experiment [1] and 0.12 µM in experiment [2]. Also, the Ratio Ki in experiment [3] was 8.
As to `CC(C)N(CCCCc1ccccc1)C(=O)N[C@H](C=O)Cc1ccccc1`, the Ki in experiment [1] amounted to 400 nM.
With `CC(C)C(C(=O)N[C@H](C=O)Cc1ccccc1)C(=O)OCc1ccccc1` (some centres not stated), the results for the Ki in experiment [1] and in experiment [2] were 10 nM and 0.02 µM, respectively. The Ratio Ki in experiment [3] amounted to 2.
For the molecule `CC(C)CN(CCOCc1ccccc1)C(=O)N[C@H](C=O)C(C)C`, in experiment [1], the Ki came to 9270 nM.
On the same count and under the same terms, the figure for `CC(C)N(CCc1ccccc1)C(=O)N[C@H](C=O)Cc1ccccc1` is 2350 nM; for `CN(CCOCc1ccccc1)C(=O)N[C@H](C=O)Cc1ccccc1` it is 6690 nM; for `O=C[C@H](Cc1ccccc1)NC(=O)N(CCOCc1ccccc1)Cc1ccccc1` it is 6650 nM.
With `CC(C)N(CCCc1ccccc1)C(=O)N[C@H](C=O)Cc1ccccc1`, affinity in experiment [1] was put at a Ki of 1160 nM.
In turn, `CCN(CCOCc1ccccc1)C(=O)N[C@H](C=O)Cc1ccccc1` had a Ki in experiment [1] of 1150 nM.
As a reminder, the inhibition is the share of the control response that was lost under treatment. Low values mean little suppression, high ones strong suppression. Take `CC(C)NC(=O)N[C@H](C=O)Cc1ccccc1`: the inhibition in experiment [4] turned out to be 13%.
